# Source: article PMC6796870, “A two-step lineage reprogramming strategy to generate functionally competent human hepatocytes from fibroblasts” (Cell Research, 2019)
# Where a name gives a salt, the structure may show the parent alone. Read-outs that look alike come from different tables or passages of the source.
# Assays:
# [1] = test system: hiHeps
# [2] = test system: HepG2 cells
# [3] = test system: hiHeps; format: cell-based, human
# Experimental: The correlation between groups was evaluated by the Pearson correlation coefficient (r). b Time- and dose-dependent chronic toxicity of troglitazone in hiHeps. Mitochondrial activities were normalized to DMSO-treated cultures at corresponding day. n = 6. c Fluorescence evaluation of the pathological effects of DILI in hiHeps. Steatosis (up) and phospholipidosis (down) were evaluated in hiHeps after exposure to steatosis-causing compounds and phospholipidosis-causing compounds, respectively. Rifampin (non-steatosis/phospholipidosis-causing drug) or DMSO treatment were set as controls. For all compounds, images were captured at the concentration of 80% TC50. For all measurements, ‘n’ represents the number of biological replicates. The scale bars represent 50 μm. Data are presented as mean ± SEM
# [4] = test system: hiHeps; settings: human
# [5] = test system: HBV; experiment: HBV infection of hiHeps, antiviral drug response; format: cell-based, hepatitis B virus; settings: HBV-infected hiHeps; for HBV-DNA / HBV-RNA / HBV-proteins: 36 days, LAM 1 μM, ETV 0.5 μM during and after infection
# [6] = test system: IFN-stimulated genes; experiment: Expression of IFN-stimulated genes in hiHeps; format: cell-based, human; settings: IFN-α treatment
# [7] = Table S9; ref 1,2 (Chen, M. et al. 2011); cited from earlier work
# [8] = test system: hiHeps; experiment: Toxicity assay (TC50, 24 h, minimum of four viability parameters) in hiHeps; settings: concentration giving 50% reduction of cell viability, values rounded for ease of use
compound,measurement,setting,value
aflatoxin B1,Toxicity after rifampin plus CYP3A4 inhibitor (ketoconazole),[1],rescued
same,Toxicity after treatment with CYP3A4 inducer (rifampin),[1],increased
same,"DDI effects on toxicity (rifampin, rifampin + ketoconazole)",[2],not detected
Cc1c(C)c2c(c(C)c1O)CCC(C)(COc1ccc(CC3SC(=O)NC3=O)cc1)O2 (centres unmarked) [troglitazone],Chronic toxicity,[3],extensive cell death
CN(C)[C@@H]1C(O)=C(C(N)=O)C(=O)[C@@]2(O)C(O)=C3C(=O)c4c(O)cccc4[C@@](C)(O)[C@H]3C[C@@H]12 [tetracycline hydrochloride],TC50,[4],~400 µM
Nc1ccn([C@@H]2CS[C@H](CO)O2)c(=O)n1 [lamivudine],HBV-DNA,[5],greatly inhibited
same,HBV-RNA,[5],moderate effect
same,HBV-proteins,[5],moderate effect
interferon-alpha,Expression of IFN-stimulated genes,[6],upregulation
same,"All major HBV markers (HBV-DNA, HBV-RNA, HBV-proteins)",[5]; 1000 U/mL after infection,inhibitory effect
CCN(CC)CCNC(=O)c1c(C)[nH]c(/C=C2\C(=O)Nc3ccc(F)cc32)c1C [Sunitinib],Label,[7],DILI concern by FDA
CCCCc1oc2ccccc2c1C(=O)c1cc(I)c(OCCN(CC)CC)c(I)c1 [amiodarone],TC50,[8],~30 µM
CO[C@H]1/C=C/O[C@@]2(C)Oc3c(C)c(O)c4c(O)c(c(/C=N/N5CCN(C)CC5)c(O)c4c3C2=O)NC(=O)/C(C)=C\C=C\[C@H](C)[C@H](O)[C@@H](C)[C@@H](O)[C@@H](C)[C@H](OC(C)=O)[C@@H]1C [rifampin],TC50,[8],~100 µM
C=C1[C@H](CO)[C@@H](O)C[C@@H]1n1cnc2c(=O)[nH]c(N)nc21 [entecavir],HBV-DNA,[5],greatly inhibited
same,HBV-RNA,[5],moderate effect
same,HBV-proteins,[5],moderate effect
CN(C)CCCN1c2ccccc2Sc2ccc(Cl)cc21 [chlorpromazine],TC50,[8],≈ 25 μM
CC(C)C(=O)Nc1ccc([N+](=O)[O-])c(C(F)(F)F)c1 [flutamide],Toxicity after treatment with CYP3A4 inducer (rifampin),[1],increased
same,"DDI effects on toxicity (rifampin, rifampin + ketoconazole)",[2],not detected
CC(=O)O[C@@]12CO[C@@H]1C[C@H](O)[C@@]1(C)C(=O)[C@H](O)C3=C(C)[C@@H](OC(=O)[C@H](O)[C@@H](NC(=O)OC(C)(C)C)c4ccccc4)C[C@@](O)([C@@H](OC(=O)c4ccccc4)[C@H]21)C3(C)C [Docetaxel],Label,[7],DILI concern by FDA
